US20250195528A1, “DOSE REGIMEN OF VICASINABIN” (Hoffmann-La Roche Inc., priority 2022, published 2025)

What was measured:
human CB2 [1] = target: T1, human CB2 (Homo sapiens, UniProt P34972); experiment: Radioligand binding to CB2, U698M cells expressing endogenous CB2
T1 construct: expressed in transfected cells; host or cells: CHO cells

human CB2 [2] = target: T1, human CB2; experiment: Forskolin-stimulated cAMP inhibition in stably transfected CHO cells; format: cell-based; settings: for Emax: CHO, normalized to 10 μM CP55′940; for IC50: IC50 ± SE (nM), CHO cells
Excerpt: (§1) Inhibition of cAMP accumulation in Chinese hamster ovary cells stably expressing recombinant CB2 was used to determine the functional potency of RO6868847 for different CB2 species and the selectivity over the closely related CB1.

rat CB2 = target: T2, rat CB2 (Rattus norvegicus, UniProt Q9QZN9); experiment: as above; format: cell-based
T2 construct: expressed in transfected cells; host or cells: CHO cells
T2 sequence (Q9QZN9 1-360): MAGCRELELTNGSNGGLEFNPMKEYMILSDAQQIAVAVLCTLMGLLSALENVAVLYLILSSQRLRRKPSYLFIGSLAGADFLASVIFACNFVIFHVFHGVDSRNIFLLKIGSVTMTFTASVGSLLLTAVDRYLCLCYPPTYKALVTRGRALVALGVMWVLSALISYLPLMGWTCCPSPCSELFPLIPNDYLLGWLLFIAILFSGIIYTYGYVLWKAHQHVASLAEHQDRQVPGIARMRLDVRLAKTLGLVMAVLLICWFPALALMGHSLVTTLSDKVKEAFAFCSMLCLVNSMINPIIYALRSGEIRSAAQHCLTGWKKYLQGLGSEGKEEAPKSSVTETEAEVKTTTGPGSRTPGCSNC
Excerpt: as §1

[3] = parameters: species or system human; settings: in vivo
Excerpt: In Study BP40387, in Part 1, 11 participants (24.4%), Part 2, 1 participant (12.5%), Part 3, 16 participants (40%), Part 4, 12 participants (70.6%) and Part 5, 2 participants (11.1%), had reported at least 1 AE (see Table 22). One participant (5.9%) in Part 4 of the study was withdrawn by the investigator because of AEs. The AEs reported in more than 2 participants in Part 1 was medical device site erythema (6 participants in each PT) and vascular procedure complication (2 participants in each PT), in Part 3 was medical device site erythema (5 participants in each PT), constipation (3 participants in each PT) medical device site papule, medical device site pruritus, vascular procedure complication, headache (each 2 participants), and in Part 4 constipation (2 participants in each PT). […] The event was considered to be related to vicasinabin by the investigator and resolved without sequelae within one week after treatment discontinuation.

clinical = settings: both, human, plasma, oral
Experimental: Study BP40387 was a Phase I study that was conducted in healthy male and female participants, and included 5 parts. Part 1 (SAD) consisted of an adaptive, single-ascending-dose, investigator/participant-blind, randomized, placebo-controlled, parallel study to investigate the safety, tolerability, and pharmacokinetics of RO6868847. Part 2 (FE), was designed as an open-label, randomized, two-period crossover, single dose investigation of the effect of food on the pharmacokinetics of RO6868847. Part 3 (MAD), was an adaptive, multiple-ascending-dose, investigator/participant-blind, randomized, placebo-controlled, parallel study to investigate the safety, tolerability, and pharmacokinetics of RO6868847 administered once-daily for 14 days. Part 4 (DDI-CYP Induction), was a non-randomized, open-label, fixed-sequence, two-period study to explore RO6868847-mediated CYP induction at 300 mg administered once-daily for 14 days, using midazolam, repaglinide, and bupropion as probe substrates for CYP3A, CYP2C8, and CYP2B6, respectively. […] Overall, in Part 1 (SAD), a total of 33 healthy participants received single oral doses of RO6868847 ranging between 0.75 mg and 300 mg, and 12 participants received placebo under fasting conditions. In Part 2 (FE), 8 participants received a single oral dose of 100 mg RO6868847 once after an overnight fast of at least 10 hours and once within 30 minutes after starting a high-calorie, high-fat breakfast. In Part 3 (MAD), a total of 30 participants received multiple oral doses of 6 mg to 300 mg RO6868847 QD for 14 days, and 10 participants received placebo.
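For AUC in this document: phase I trial BP40387 in healthy male and female volunteers.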
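For Cmax in this document: phase I trial BP40387 in healthy male and female volunteers.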
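For Tmax in this document: phase I trial BP40387 in healthy male and female volunteers.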

T1 sequence (P34972 whole entry): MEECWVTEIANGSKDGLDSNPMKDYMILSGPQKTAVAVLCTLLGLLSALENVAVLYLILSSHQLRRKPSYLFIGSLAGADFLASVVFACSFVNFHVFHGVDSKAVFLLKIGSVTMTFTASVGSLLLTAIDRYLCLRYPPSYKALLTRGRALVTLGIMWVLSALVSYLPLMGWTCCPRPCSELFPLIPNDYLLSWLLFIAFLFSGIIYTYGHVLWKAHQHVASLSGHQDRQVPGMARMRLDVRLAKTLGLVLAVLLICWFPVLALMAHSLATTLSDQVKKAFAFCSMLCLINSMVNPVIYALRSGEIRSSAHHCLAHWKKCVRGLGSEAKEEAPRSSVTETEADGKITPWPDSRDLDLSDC

Q: Which results are given for `Cn1nnnc1Cn1nnc2c(N3CC[C@H](O)C3)nc(C(C)(C)C)nc21` [RO6868847, (3S)-1-[5-tert-butyl-3-[(1-methyltetrazol-5-yl)methyl]triazolo[4,5-d]pyrimidin-7-yl]pyrrolidin-3-ol]?
A: IC50 (human CB2 [1]): 92.2 ± 13.1 nM; Ki (human CB2 [1]): 62.8 nM; agonist character at human CB2 (human CB2 [2]): potent, full agonist; Emax (human CB2 [2]; Human): 103%; Emax (human CB2 [2]; second row printed 'Human'): 101%; IC50 (human CB2 [2]; Human, four independent experiments): 2.81 ± 0.28 nM; IC50 (human CB2 [2]; second row printed 'Human'): 2.6 ± 0.14 nM; IC50 (rat CB2): 0.58 ± 0.04 nM; Emax (rat CB2; CHO, Rats, normalized to 10 μM CP55′940): 94.7%; participants withdrawn because of AEs ([3]; both, human, 14 days): 5.9%; clinical laboratory parameters, ECGs, vital signs, C-SSRS, VAS, TBNK assay, neurological examinations [3]: No specific concerns; half-life (clinical): 8.27 to 39 h; AUC (clinical; 6 mg): 870 ng·h/mL; Cmax (clinical; 6 mg): 97.9 ng/mL; half-life (clinical; 6 mg): 8.27 h; AUC (clinical; 20 mg): 2610 ng·h/mL; Cmax (clinical; 20 mg): 289 ng/mL; Tmax (clinical; 20 mg): 1.06 h; half-life (clinical; 20 mg): 15 h; AUC (clinical; 60 mg): 8480 ng·h/mL; Cmax (clinical; 60 mg): 899 ng/mL; Tmax (clinical; 60 mg): 2 h; half-life (clinical; 60 mg): 31.6 h; AUC (clinical; 200 mg): 21400 ng·h/mL; Cmax (clinical; 200 mg): 2380 ng/mL; Tmax (clinical; 200 mg): 3 h; AUC (clinical; 300 mg): 27100 ng·h/mL; Cmax (clinical; 300 mg): 2970 ng/mL; Tmax (clinical; 300 mg): 2.5 h; half-life (clinical; 300 mg): 39 h
